{"source": "patent US8235110B2", "about": "“Preconditioning an oilfield reservoir” (Gushor Inc., priority 2006, dated 2012)", "key": {"[1]": {"test": "Heating agent in water solution in sealed pressure vessels at SAGD conditions (gas generation by decomposition)", "format": "physicochemical", "protocol": "For illustrative purposes, an experiment conducted to simulate the impact of a recovery process on selected preconditioning agents under reservoir conditions shall be described. […] In one such experiment, the preconditioning agent was citric acid which was dissolved in water to create the water solution."}, "[2]": {"conditions": "cited from earlier work"}, "[3]": {"conditions": "5.0 g agent and 50 milliliters water, three days at 205° C., SAGD conditions"}, "[4]": {"conditions": "5 grams agent, 205° C., approx. 73 hours"}}, "data": [{"smiles": "O=C(O)C(=O)O", "note": "[oxalic acid dihydrate]", "values": [{"measurement": "carbon dioxide produced on conversion", "setting": "[1]; [3]", "result": "1.25 moles CO2/mole of oxalic acid dehydrate"}, {"measurement": "methane produced on conversion", "setting": "[1]; [3]", "result": "0.56 moles/mole of oxalic acid dihydrate"}]}, {"smiles": "CCCC(C)=O", "note": "[MPK, methyl propyl ketone]", "values": [{"measurement": "Solubility in Water at 20° C.", "setting": "[2]", "result": 31, "unit": "mg/mL"}]}, {"smiles": "O=C(O)CC(O)(CC(=O)O)C(=O)O", "note": "[Citric Acid, citric acid]", "values": [{"measurement": "methane in headspace gas", "setting": "[1]; [4]", "result": "approximately 1500 ppm"}, {"measurement": "propane in headspace gas", "setting": "[1]; [4]", "result": "~300", "unit": "ppm"}, {"measurement": "CO2 yielded in headspace", "setting": "[1]; approximately 5 grams agent (50 milliliters of 10% solution), 205° C., approx. 73 hours, approx. 990 psi", "result": "approximately 1.16 liters"}, {"measurement": "carbon dioxide yield scaled", "setting": "[1]; from 1 cubic meter of 10% solution", "result": "23,200 liters"}]}]}
